Patent US4950647A, “T cell immunopotentiator” (Nucleic Acid Research Institute, priority 1988, dated 1990)
Where two headings read alike, the source gives them in different places.

Key:
Format in all cases: cell-based, human
[1] = system: lymphocytes (peripheral blood mononuclear cells); assay: Pokeweed mitogen (PWM) induced lymphocyte proliferation; parameters: 3H-thymidine incorporation: unit not given here
Description: Peripheral blood mononuclear cells were isolated from heparinized peripheral blood of normal healthy donors as described in Sharma, B. and S. Gupta, "Antigen-specific primary cytotoxic T lymphocyte response in acquired immune deficiency syndrome (AIDS) and AIDS related complex", Clin. Exp. Immunol., 62:296, 1985. Briefly, blood was diluted 1:1 with Hanks balanced salt solution (HBSS). Peripheral blood mononuclear cells were separated on a Ficoll-Hypaque gradient. The peripheral blood mononuclear cells recovered from the interface were washed three times with HBSS and resuspended in RPMI-1640 containing 100 U/ml penicillin, 100 μg/ml streptomycin 2mM L-glutamine (GIBCO, Grand Island, N.Y.), and 10% heat-inactivated pooled A serum (Irvine Scientific, Irvine, Calif.), hereafter referred as complete medium (CM). […] T. Terasaki, "Effect of water soluble adjuvants on in vitro lymphocyte immunization", Cancer Res. 35:666, 1975. […] The culture were set up in quadruplicate and pulsed with [^3 H]-thymidine for 16 hr and the [^3 H] thymidine incorporation was determined.

[2] = system: S target cells (cultured lymphoblasts from SB cell line); assay: Generation of antigen-specific primary cytotoxic T lymphocytes, 51Cr release, target S; conditions: for % Specific Cytotoxicity: Exp. 2, C + Sx, no compound 26
Description: Peripheral blood mononuclear cells from healthy donor A and C were cultured together with irradiated (3000 R) peripheral blood mononuclear cells from donor B and irradiated cells (SX) from B cells of the SB cell line, respectively, for five days. At the end of the incubation period, the cells were washed and resuspended in medium and then their cytotoxic activity was determined against the specific lymphoblast target cell B or S according to the procedure of Sharma and Gupta noted above.

[3] = system: T lymphocytes (peripheral blood mononuclear cells); assay: Cyclosporin A induced suppression of lymphocyte response to phytohemagglutinin / T cell mitogens, and its restoration
Description: Peripheral blood mononuclear cells were isolated from heparinized peripheral blood of normal healthy donors as described in Sharma, B. and S. Gupta, "Antigen-specific primary cytotoxic T lymphocyte response in acquired immune deficiency syndrome (AIDS) and AIDS related complex", Clin. Exp. Immunol., 62:296, 1985. Briefly, blood was diluted 1:1 with Hanks balanced salt solution (HBSS). Peripheral blood mononuclear cells were separated on a Ficoll-Hypaque gradient. The peripheral blood mononuclear cells recovered from the interface were washed three times with HBSS and resuspended in RPMI-1640 containing 100 U/ml penicillin, 100 μg/ml streptomycin 2mM L-glutamine (GIBCO, Grand Island, N.Y.), and 10% heat-inactivated pooled A serum (Irvine Scientific, Irvine, Calif.), hereafter referred as complete medium (CM).
Cultures were pulsed for 16 hr and [^3 H]-thymidine incorporation was measured.
Peripheral blood mononuclear cells from normal donors were incubated with T cell mitogens in the presence and absence of this compound and then [^3 H-thymidine incorporation was measured.
Peripheral blood mononuclear cells were cultured with phytohemagglutinin in the presence of CsA (10 and 50 ng/0.2 ml) and 6-amino-(2-deoxy-α-D-erythro-pentofuranosyl)-imidazo[4,5,-C]pyridin- 4-one. Lymphocytes proliferation was determined by ^3 H-thymidine incorporation.

With `Nc1cc2c(ncn2[C@@H]2C[C@H](O)[C@@H](CO)O2)c(O)n1` [Test Compound, 6-amino-1-(2-deoxy-α-D-erythro-pentofuranosyl)imidazo[4,5-C]-pyridin-4-one] the “maximum increase of Pokeweed mitogen induced proliferation” value [1] was 18%, the activation at 6 µM ([1]; Homo sapiens, Lymphocyte, donor 1, control 53384, 0.006 mM, read-out: % Increase (+)) was 18% and the activation at 25 µM ([1]; Homo sapiens, Lymphocyte, donor 1, control 53384, 0.025 mM, read-out: % Increase (+)) was 8%. The activation at 6 µM ([1]; Homo sapiens, Lymphocyte, donor 1, second control 58731, 0.006 mM, read-out: % Increase (+)) was 4%, the activation at 6 µM ([1]; Homo sapiens, Lymphocyte, donor 4, 0.006 mM, read-out: % Increase (+)) was 4% and the inhibition at 50 µM ([1]; Homo sapiens, PBMC, donor 1, control 53384, 0.05 mM, read-out: % Decrease (-)) was 14%. The inhibition at 25 µM ([1]; Homo sapiens, PBMC, donor 1, second control 58731, 0.025 mM, read-out: % Decrease (-)) was 1%, the inhibition at 50 µM ([1]; Homo sapiens, PBMC, donor 1, second control 58731, 0.05 mM, read-out: % Decrease (-)) was 7% and the inhibition at 25 µM ([1]; Homo sapiens, PBMC, donor 2, 0.025 mM, read-out: % Decrease (-)) was 19%. It also gave an inhibition at 50 µM ([1]; Homo sapiens, PBMC, donor 2, 0.05 mM, read-out: % Decrease (-)) of 19%, an inhibition at 125 µM ([1]; Homo sapiens, PBMC, donor 2, 0.125 mM, read-out: % Decrease (-)) of 16% and an inhibition at 6 µM ([1]; Homo sapiens, PBMC, donor 3, 0.006 mM, read-out: % Decrease (-)) of 4%. It also gave an inhibition at 25 µM ([1]; Homo sapiens, PBMC, donor 3, 0.025 mM, read-out: % Decrease (-)) of 22%, an inhibition at 200 µM ([1]; Homo sapiens, PBMC, donor 3, 0.2 mM, read-out: % Decrease (-)) of 27% and an inhibition at 25 µM ([1]; Homo sapiens, PBMC, donor 4, 0.025 mM, read-out: % Decrease (-)) of 11%. The inhibition at 50 µM ([1]; Homo sapiens, PBMC, donor 4, 0.05 mM, read-out: % Decrease (-)) was 18%, the 3H-thymidine incorporation ([1]; donor 1, control 53384, 0.006 mM) was 62772 ± 2781 and the 3H-thymidine incorporation ([1]; donor 1, control 53384, 0.025 mM) was 56449 ± 2090. It also gave a 3H-thymidine incorporation ([1]; donor 1, control 53384, 0.05 mM) of 45844 ± 1152, a 3H-thymidine incorporation ([1]; donor 1, second control 58731, 0.006 mM) of 61100 ± 4701 and a 3H-thymidine incorporation ([1]; donor 1, second control 58731, 0.025 mM) of 57852 ± 3166. For the same compound, the 3H-thymidine incorporation ([1]; donor 1, second control 58731, 0.05 mM) was 54840 ± 942, the 3H-thymidine incorporation ([1]; donor 2, 0.025 mM) was 67565 ± 5857 and the 3H-thymidine incorporation ([1]; donor 2, 0.05 mM) was 67429 ± 3657. For the same compound, the 3H-thymidine incorporation ([1]; donor 2, 0.125 mM) was 70197 ± 5940, the 3H-thymidine incorporation ([1]; donor 3, 0.006 mM) was 40425 ± 1158 and the 3H-thymidine incorporation ([1]; donor 3, 0.025 mM) was 32818 ± 4806. It also gave a 3H-thymidine incorporation ([1]; donor 3, 0.2 mM) of 30453 ± 2974, a 3H-thymidine incorporation ([1]; donor 4, 0.006 mM) of 39090 ± 4853 and a 3H-thymidine incorporation ([1]; donor 4, 0.025 mM) of 33122 ± 4539. For the same compound, the 3H-thymidine incorporation ([1]; donor 4, 0.05 mM) was 30500 ± 2132, the “suppressive effect on Pokeweed mitogen induced proliferation” value ([1]; especially at relatively higher concentrations) was “generally a suppressive effect” and the “immunopotentiating effect on Pokeweed mitogen induced proliferation” value ([1]; listed as 6-Amino-(2-deoxy-α-D-erythro-pentofuranosyl)-imidazo[4,5,-C]pyridin-4-one) was “did not have any significant immunopotentiating effect”. The “% Specific Cytotoxicity” value ([2]; compound (0.006)) was 42%, the “% Specific Cytotoxicity” value ([2]; compound (0.025)) was 36% and the “% Specific Cytotoxicity” value ([2]; compound (0.1)) was 53%. For the same compound, the “cytotoxic T lymphocyte activity” value ([2]; cultured lymphoblasts from the SB cell (leukemic) line) was “increased”, the “T cell proliferative response after addition of compound” value ([3]; FIG. 3, PHA + Cyclosporin A + compound) was 43,000 CPM and the “reversal of cyclosporin mediated suppression (partial)” value ([3]; magnitude of cyclosporin mediated suppression higher, T cell mitogens) was “over 50%”. The “restoration of lymphocyte proliferation” value ([3]; suppression about half of the total response, mitogen not stated) was “completely restored the lymphocyte proliferation” and the “reconstitution of immune response” value ([3]; suppression low, lower concentration of cyclosporin, T cell mitogens) was “essentially complete”.
